Literature values as cited in PMC3993928 (Journal of Medicinal Chemistry, 2014).

Key:
[1] = system: C57BL/6 mice; settings: mouse WWTW
[2] = target: T1, δ opioid receptor (DOPr) (Rattus norvegicus, UniProt P33533); settings: relative to DPDPE at 10 μM; dns = does not stimulate
[3] = target: T1, δ opioid receptor (DOPr); settings: read-out: Ki (nM) DOPr; [3H]diprenorphine displacement
[4] = target: T2, μ opioid receptor (MOPr) (Rattus norvegicus, UniProt P33535); settings: read-out: Ki (nM) MOPr; [3H]diprenorphine displacement
[5] = target: T3, κ opioid receptor (KOPr) (Homo sapiens, UniProt P41145); settings: read-out: Ki (nM) KOPr; [3H]diprenorphine displacement
[6] = target: T3, κ opioid receptor (KOPr); settings: relative to U69,593 at 10 μM; dns = does not stimulate
[7] = target: T2, μ opioid receptor (MOPr); settings: read-out: EC50 (nM), MOPr; [35S]GTPγS binding

T1 sequence (P33533 whole entry): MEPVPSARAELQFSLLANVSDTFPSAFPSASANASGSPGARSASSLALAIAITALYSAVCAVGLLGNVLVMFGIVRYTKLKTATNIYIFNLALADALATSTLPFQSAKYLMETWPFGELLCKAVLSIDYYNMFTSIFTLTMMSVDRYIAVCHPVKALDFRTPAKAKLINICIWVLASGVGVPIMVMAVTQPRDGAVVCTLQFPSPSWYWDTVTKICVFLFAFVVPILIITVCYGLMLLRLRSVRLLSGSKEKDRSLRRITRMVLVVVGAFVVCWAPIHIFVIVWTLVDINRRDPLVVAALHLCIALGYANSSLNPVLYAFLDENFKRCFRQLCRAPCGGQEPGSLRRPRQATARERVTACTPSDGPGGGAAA
T2 sequence (P33535 whole entry): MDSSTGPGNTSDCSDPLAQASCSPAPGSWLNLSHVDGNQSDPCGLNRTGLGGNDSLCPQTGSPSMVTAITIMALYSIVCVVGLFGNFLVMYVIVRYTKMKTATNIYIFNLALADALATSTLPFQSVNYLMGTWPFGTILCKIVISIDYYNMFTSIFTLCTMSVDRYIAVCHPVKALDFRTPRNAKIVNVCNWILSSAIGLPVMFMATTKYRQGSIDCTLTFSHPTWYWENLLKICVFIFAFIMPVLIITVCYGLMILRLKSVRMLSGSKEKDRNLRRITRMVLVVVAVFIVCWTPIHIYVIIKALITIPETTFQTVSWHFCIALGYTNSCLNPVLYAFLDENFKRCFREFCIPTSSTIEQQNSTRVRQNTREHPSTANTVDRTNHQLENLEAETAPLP
T3 sequence (P41145 whole entry): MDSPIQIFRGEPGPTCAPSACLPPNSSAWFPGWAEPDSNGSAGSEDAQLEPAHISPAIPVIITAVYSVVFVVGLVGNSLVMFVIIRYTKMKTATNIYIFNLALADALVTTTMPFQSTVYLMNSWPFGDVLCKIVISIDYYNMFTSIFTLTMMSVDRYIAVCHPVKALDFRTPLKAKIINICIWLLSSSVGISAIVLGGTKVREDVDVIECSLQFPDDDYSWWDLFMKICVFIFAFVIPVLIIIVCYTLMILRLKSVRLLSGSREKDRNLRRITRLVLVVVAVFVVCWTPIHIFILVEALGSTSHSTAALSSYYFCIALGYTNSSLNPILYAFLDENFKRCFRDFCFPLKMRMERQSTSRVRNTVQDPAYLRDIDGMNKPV

For CN1CC[C@]23c4c5ccc(O)c4O[C@H]2[C@@H](O)C=C[C@H]3[C@H]1C5 [morphine], the “duration of antinociceptive action relative to 4 (fold longer)” value [1] is given as “approximately 2 fold”.

In the case of “Dmt-c(SEtS)[DCys-Aci-DPen]OH [compound 1]”, the “efficacy (% of control), DOPr” value [2] is given as “dns”, the Ki [3] is given as 2.3 ± 0.5 nM and the Ki [4] is given as 2.4 ± 0.7 nM. The Ki [5] was 776 ± 149 nM, the “efficacy (% of control), KOPr” value [6] was “dns” and the EC50 [7] was 4.7 ± 0.7 nM.
